Source: patent US9302999B2, “Substituted triazoles as herbicides” (E. I. DU PONT DE NEMOURS AND COMPANY, priority 2012, dated 2016)

Tests used:
Type in all cases: in vivo
[1] = system: goosegrass (Eleusine indica); test: Test C pre-/postemergence: goosegrass
Summary of the method: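 Preemergence on seeds in loam/sand, postemergence on 2–18 cm (1–4-leaf) plants in peat-based medium; compounds in non-phytotoxic solvent with surfactant. After 13–15 days in greenhouse, visual rating versus controls, 0 (no effect) to 100 (complete control).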

[2] = system: foxtail, green (green foxtail, Setaria viridis); test: Test D pre-/postemergence: foxtail, green
Summary of the method: (§1)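 Species were sown in silt loam and sprayed preemergence, or grown in peat/vermiculite medium and sprayed postemergence at the 1- to 4-leaf stage (2–18 cm), with compounds in a surfactant-containing solvent. Injury was visually rated against untreated controls after 14–21 days, on a 0 (no effect) to 100 (complete control) scale.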

[3] = system: wheat, winter (winter wheat, Triticum aestivum); test: Test D pre-/postemergence: wheat, winter
Summary of the method: as §1

[4] = system: galium (catchweed bedstraw, Galium aparine); test: Test D pre-/postemergence: galium
Summary of the method: as §1

[5] = system: bluegrass (annual bluegrass, Poa annua); test: Test D pre-/postemergence: bluegrass
Summary of the method: as §1

[6] = system: barnyardgrass (Echinochloa crus-galli); test: Test B flooded paddy: barnyardgrass; settings: Flood; 250 g ai/ha; applied to paddy water at 2-leaf stage; visually evaluated after 13 to 15 days
Summary of the method: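 Flooded-pot test: compound dosed into 3 cm of standing water above soil when plants had two leaves. Visual control ratings (0–100) versus untreated plants after 13–15 d.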

[7] = Postemergence, 31 g ai/ha, scale 0 to 100 (0 no effect, 100 complete control)
[8] = Postemergence, 62 g ai/ha, scale 0 to 100 (0 no effect, 100 complete control)
[9] = Postemergence, 125 g ai/ha, scale 0 to 100, 0 no effect, 100 complete control
[10] = Preemergence, 31 g ai/ha, scale of 0 to 100, 0 is no effect, 100 is complete control
[11] = Preemergence, 62 g ai/ha, scale of 0 to 100, 0 is no effect, 100 is complete control
[12] = Preemergence, 125 g ai/ha, scale 0 to 100, 0 no effect, 100 complete control
[13] = Preemergence, 250 g ai/ha, scale 0 to 100, 0 no effect, 100 complete control
[14] = Postemergence, 8 g ai/ha, scale 0 to 100
[15] = Postemergence, 16 g ai/ha, scale 0 to 100
[16] = Postemergence, 250 g ai/ha, scale 0 to 100 (0 no effect, 100 complete control)
[17] = Preemergence, 16 g ai/ha, scale 0 to 100 (0 no effect, 100 complete control)
[18] = Preemergence, 31 g ai/ha, scale 0 to 100 (0 no effect, 100 complete control)
[19] = Preemergence, 62 g ai/ha, scale 0 to 100
[20] = Preemergence, 125 g ai/ha, scale 0 to 100
[21] = Preemergence, 250 g ai/ha, scale 0 to 100

Cc1nn(-c2ccc(F)c(F)c2)nc1Oc1ccnc(C(F)(F)F)c1 [Compound 145]
Plant response rating, Goosegrass [1, 7]: 25
Plant response rating, Goosegrass [1, 8]: 35
Plant response rating, Goosegrass [1, 9]: 70
Plant response rating, Goosegrass ([1]; Postemergence, 250 g ai/ha, scale 0 to 100): 80
Plant response rating, Goosegrass [1, 10]: 98
Plant response rating, Goosegrass [1, 11]: 100
Plant response rating, Goosegrass [1, 12]: 100
Plant response rating, Goosegrass [1, 13]: 100
Plant response rating: Foxtail, Green [2, 7]: 60
Plant response rating: Foxtail, Green [2, 8]: 100
Plant response rating: Foxtail, Green [2, 9]: 100
Plant response rating, Foxtail, Green [2, 14]: 5
Plant response rating, Foxtail, Green [2, 15]: 5
Plant response rating: Wheat, Winter [3, 7]: 10
Plant response rating: Wheat, Winter [3, 8]: 10
Plant response rating: Wheat, Winter [3, 9]: 10
Plant response rating, Wheat, Winter [3, 14]: 5
Plant response rating, Wheat, Winter [3, 15]: 5
Plant response rating: Galium [4, 7]: 35
Plant response rating: Galium [4, 8]: 40
Plant response rating: Galium [4, 9]: 70
Plant response rating, Galium [4, 14]: 5
Plant response rating, Galium [4, 15]: 30
Plant response rating: Bluegrass [5, 7]: 20
Plant response rating: Bluegrass [5, 8]: 25
Plant response rating: Bluegrass [5, 9]: 40
Plant response rating, Bluegrass [5, 14]: 0
Plant response rating, Bluegrass [5, 15]: 0
Plant response rating, Barnyardgrass (0 to 100 scale, 0 is no effect, 100 is complete control) [6]: 90

CCOc1nn(-c2ccc(F)cc2)nc1Cc1ccnc(C(F)F)c1 [Compound 195]
Plant response rating, Goosegrass [1, 7]: 50
Plant response rating, Goosegrass [1, 8]: 50
Plant response rating, Goosegrass [1, 9]: 60
Plant response rating, Goosegrass [1, 16]: 80
Plant response rating, Goosegrass ([1]; Preemergence, 31 g ai/ha, scale 0 (no effect) to 100 (complete control)): 98
Plant response rating, Goosegrass [1, 11]: 100
Plant response rating, Goosegrass [1, 12]: 100
Plant response rating, Goosegrass [1, 13]: 100
Plant response rating: Foxtail, Green [2, 7]: 50
Plant response rating: Foxtail, Green [2, 8]: 75
Plant response rating: Foxtail, Green [2, 9]: 100
Plant response rating: Foxtail, Green [2, 16]: 100
Plant response rating, Foxtail, Green [2, 15]: 30
Plant response rating, Foxtail, Green [2, 17]: 15
Plant response rating, Foxtail, Green [2, 18]: 90
Plant response rating, Foxtail, Green [2, 19]: 100
Plant response rating, Foxtail, Green [2, 20]: 100
Plant response rating, Foxtail, Green [2, 21]: 100
Plant response rating: Wheat, Winter [3, 7]: 10
Plant response rating: Wheat, Winter [3, 8]: 10
Plant response rating: Wheat, Winter [3, 9]: 25
Plant response rating: Wheat, Winter [3, 16]: 40
Plant response rating, Wheat, Winter [3, 15]: 5
Plant response rating, Wheat, Winter [3, 17]: 0
Plant response rating, Wheat, Winter [3, 18]: 0
Plant response rating, Wheat, Winter [3, 19]: 0
Plant response rating, Wheat, Winter [3, 20]: 0
Plant response rating, Wheat, Winter [3, 21]: 10
Plant response rating: Galium [4, 7]: 30
Plant response rating: Galium [4, 8]: 50
Plant response rating: Galium [4, 9]: 75
Plant response rating: Galium [4, 16]: 80
Plant response rating, Galium [4, 15]: 20
Plant response rating, Galium [4, 17]: 0
Plant response rating, Galium [4, 18]: 0
Plant response rating, Galium [4, 19]: 10
Plant response rating, Galium [4, 20]: 30
Plant response rating, Galium [4, 21]: 80
Plant response rating: Bluegrass [5, 7]: 20
Plant response rating: Bluegrass [5, 8]: 40
Plant response rating: Bluegrass [5, 9]: 60
Plant response rating: Bluegrass [5, 16]: 80
Plant response rating, Bluegrass [5, 15]: 10
Plant response rating, Bluegrass [5, 17]: 0
Plant response rating, Bluegrass [5, 18]: 10
Plant response rating, Bluegrass [5, 19]: 20
Plant response rating, Bluegrass [5, 20]: 50
Plant response rating, Bluegrass [5, 21]: 80
Plant response rating, Barnyardgrass (0 to 100 scale, 0 is no effect, 100 is complete control) [6]: 85

Cc1nn(-c2ccc(F)c(C(F)(F)F)c2)nc1Oc1ccnc(C(F)(F)F)c1 [Compound 147]
Plant response rating, Goosegrass [1, 10]: 98
Plant response rating, Goosegrass [1, 11]: 100
Plant response rating, Goosegrass [1, 12]: 100
Plant response rating, Goosegrass [1, 13]: 100
Plant response rating: Foxtail, Green [2, 7]: 15
Plant response rating: Foxtail, Green [2, 8]: 25
Plant response rating: Foxtail, Green [2, 9]: 60
Plant response rating, Foxtail, Green [2, 15]: 15
Plant response rating, Foxtail, Green [2, 17]: 10
Plant response rating, Foxtail, Green [2, 18]: 25
Plant response rating, Foxtail, Green [2, 19]: 75
Plant response rating, Foxtail, Green [2, 20]: 100
Plant response rating: Wheat, Winter [3, 7]: 15
Plant response rating: Wheat, Winter [3, 8]: 15
Plant response rating: Wheat, Winter [3, 9]: 20
Plant response rating, Wheat, Winter [3, 15]: 10
Plant response rating, Wheat, Winter [3, 17]: 0
Plant response rating, Wheat, Winter [3, 18]: 0
Plant response rating, Wheat, Winter [3, 19]: 0
Plant response rating, Wheat, Winter [3, 20]: 5
Plant response rating: Galium [4, 7]: 65
Plant response rating: Galium [4, 8]: 75
Plant response rating: Galium [4, 9]: 90
Plant response rating, Galium [4, 15]: 55
Plant response rating: Bluegrass [5, 7]: 10
Plant response rating: Bluegrass [5, 8]: 55
Plant response rating: Bluegrass [5, 9]: 70
Plant response rating, Bluegrass [5, 15]: 5
Plant response rating, Bluegrass [5, 17]: 0
Plant response rating, Bluegrass [5, 18]: 15
Plant response rating, Bluegrass [5, 19]: 20
Plant response rating, Bluegrass [5, 20]: 35
Plant response rating, Barnyardgrass (0 to 100 scale, 0 is no effect, 100 is complete control) [6]: 55
